Assays:
[1] = tested on: antibodies in sera from SARS patients (sera 1a, 1b, 2, 6, 37, 62, London, SARS-yellow, SARS-green); assay type: binding, human; parameters: Binding of serum 6 to linear peptides of protein X1 of SARS-CoV Urbani / Binding of serum 37 to linear peptides of protein X1 of SARS-CoV Urbani / Binding of serum 6 to looped/cyclic peptide (PEPSCAN-ELISA) / Binding of serum 37 to looped/cyclic peptide (PEPSCAN-ELISA) / Binding of serum 37 to looped/cyclic peptides of protein X1 of SARS-CoV Urbani / Binding of serum 6 to linear peptides of protein X2 / Binding of serum 37 to linear peptides of protein X2 / Binding of serum 37 to looped/cyclic peptides of protein X2 of SARS-CoV Urbani / Binding of serum 6 to linear peptides of protein M of SARS-CoV Urbani / Binding of serum 37 to linear peptides of protein M of SARS-CoV Urbani / Binding of serum 6 to looped/cyclic peptides of protein M of SARS-CoV Urbani / Binding of serum 37 to looped/cyclic peptides of protein M of SARS-CoV Urbani / Binding of serum 6 to linear peptides of protein X3 of SARS-CoV Urbani / Binding of serum 37 to linear peptides of protein X3 of SARS-CoV Urbani / Binding of serum 37 to looped/cyclic peptides of protein X3 of SARS-CoV Urbani / Binding of serum 6 to linear peptides of protein X4 of SARS-CoV Urbani / Binding of serum 37 to linear peptides of protein X4 of SARS-CoV Urbani / Binding of serum 37 to looped/cyclic peptides of protein X4 of SARS-CoV Urbani / Binding of serum 6 to linear peptides of protein X5 of SARS-CoV Urbani / Binding of serum 37 to linear peptides of protein X5 of SARS-CoV Urbani / Binding of serum 37 to looped/cyclic peptides of protein X5 of SARS-CoV Urbani / Binding of serum 6 to linear peptides of protein N of SARS-CoV Urbani / Binding of serum 37 to linear peptides of protein N of SARS-CoV Urbani / Binding of serum 6 to linear peptide (PEPSCAN-ELISA) / Binding of serum 1a to looped/cyclic peptides of protein N of SARS-CoV Urbani / Binding of serum 1b to looped/cyclic peptides of protein N of SARS-CoV Urbani / Binding of serum 2 to looped/cyclic peptides of protein N of SARS-CoV Urbani / Binding of serum 6 to looped/cyclic peptides of protein N of SARS-CoV Urbani / Binding of serum 37 to looped/cyclic peptides of protein N of SARS-CoV Urbani / Binding of serum 62 to looped/cyclic peptides of protein N of SARS-CoV Urbani / Binding of serum London to looped/cyclic peptides of protein N of SARS-CoV Urbani / Binding of serum SARS-green to looped/cyclic peptides of protein N of SARS-CoV Urbani: unit not given here
[2] = tested on: rabbit serum obtained by immunizing a rabbit with the SARS-CoV strain Frankfurt 1; assay type: binding; parameters: Binding of a rabbit serum to linear peptides / Binding of a rabbit serum to looped peptides / Rabbit serum linear peptides / Rabbit serum looped peptides / Binding of a rabbit serum to linear peptides of protein N of SARS-CoV Urbani (Rabbit serum linear peptides) / Binding of a rabbit serum to looped/cyclic peptides of protein N of SARS-CoV Urbani (Rabbit serum looped peptides): unit not given here
[3] = tested on: control sera (pooled serum of ten healthy LUMC hospital workers; commercial negative donor pooled serum from the Dutch bloodbank); assay type: binding, human; parameters: Binding of Control serum LUMC to linear peptides / Binding of Control serum Blood-bank to linear peptides / Binding of Control serum LUMC to looped peptides / Binding of Control Serum Blood-Bank to Looped peptides / Binding of Control serum LUMC to linear peptides of the protein M of SARS-CoV Urbani / Binding of Control serum Blood-bank to linear peptides of the protein M of SARS-CoV Urbani / Binding of Control serum LUMC to looped peptides of the protein M of SARS-CoV Urbani / Binding of Control Serum Blood-Bank to Looped peptides of the protein M of SARS-CoV Urbani: unit not given here

| Sequence | Binding of serum 1a to linear peptides of protein X1 of SARS-CoV Urbani [1] | Binding of serum 1a to looped/cyclic peptide (PEPSCAN-ELISA) [1] | Binding of serum 1b to linear peptides of protein X1 of SARS-CoV Urbani [1] | Binding of serum 1b to looped/cyclic peptide (PEPSCAN-ELISA) [1] | Binding of serum 2 to linear peptides of protein X1 of SARS-CoV Urbani [1] | Binding of serum 2 to looped/cyclic peptide (PEPSCAN-ELISA) [1] | Binding of serum 6 to linear peptides of protein X1 of SARS-CoV Urbani [1] | Binding of serum 6 to looped/cyclic peptide (PEPSCAN-ELISA) [1] | Binding of serum 37 to linear peptides of protein X1 of SARS-CoV Urbani [1] | Binding of serum 37 to looped/cyclic peptide (PEPSCAN-ELISA) [1] | Binding of serum 62 to linear peptides of protein X1 of SARS-CoV Urbani [1] | Binding of serum London to linear peptides of protein X1 of SARS-CoV Urbani [1] | Binding of serum SARS-green to linear peptides of protein X1 of SARS-CoV Urbani [1] | Binding of serum SARS-yellow to linear peptides of protein X1 of SARS-CoV Urbani [1] | Binding of a rabbit serum to linear peptides [2] | Binding of a rabbit serum to looped peptides [2] | Binding of Control Serum Blood-Bank to Looped peptides [3] | Binding of Control serum Blood-bank to linear peptides [3] | Binding of Control serum LUMC to linear peptides [3] | Binding of Control serum LUMC to looped peptides [3] | further results |
| --- | --- | --- | --- | --- | --- | --- | --- | --- | --- | --- | --- | --- | --- | --- | --- | --- | --- | --- | --- | --- | --- |
| YSHLLLVAAGMEAQF | 0.7 | 0.4 | 0.6 | 0.4 | 0.5 | 0.5 | 0.5 | 0.3 | 0.6 | 0.7 | 0.7 | 0.3 | 0.3 | 0.4 | 0.1 | 0.4 | 0.4 | 0.6 | 0.5 | 0.6 | Binding of serum 62 to looped/cyclic peptide (PEPSCAN-ELISA) [1]: 0.5; Binding of serum London to looped/cyclic peptide (PEPSCAN-ELISA) [1]: 0.3; Binding of serum SARS-green to looped/cyclic peptide (PEPSCAN-ELISA) [1]: 0.5; Binding of serum SARS-yellow to looped/cyclic peptide (PEPSCAN-ELISA) [1]: 0.3 |
| AAFRDVLVVLNKRTN | – | – | – | – | – | – | – | – | – | – | – | – | – | – | – | – | 0.7 | 0.6 | 0.8 | 0.4 | Binding of serum 1a to linear peptides of protein X5 of SARS-CoV Urbani [1]: 0.6; Binding of serum 1a to looped/cyclic peptides of protein X5 of SARS-CoV Urbani [1]: 0.6; Binding of serum 1b to linear peptides of protein X5 of SARS-CoV Urbani [1]: 0.6; Binding of serum 1b to looped/cyclic peptides of protein X5 of SARS-CoV Urbani [1]: 0.4; Binding of serum 2 to linear peptides of protein X5 of SARS-CoV Urbani [1]: 0.6; Binding of serum 2 to looped/cyclic peptides of protein X5 of SARS-CoV Urbani [1]: 0.6; Binding of serum 6 to linear peptides of protein X5 of SARS-CoV Urbani [1]: 0.8; Binding of serum 6 to looped/cyclic peptides of protein X5 of SARS-CoV Urbani [1]: 0.8; Binding of serum 37 to linear peptides of protein X5 of SARS-CoV Urbani [1]: 0.5; Binding of serum 37 to looped/cyclic peptides of protein X5 of SARS-CoV Urbani [1]: 0.6; Binding of serum 62 to linear peptides of protein X5 of SARS-CoV Urbani [1]: 0.4; Binding of serum 62 to looped/cyclic peptides of protein X5 of SARS-CoV Urbani [1]: 0.5; Binding of serum London to linear peptides of protein X5 of SARS-CoV Urbani [1]: 0.6; Binding of serum London to looped/cyclic peptides of protein X5 of SARS-CoV Urbani [1]: 1.0; Binding of serum SARS-green to linear peptides of protein X5 of SARS-CoV Urbani [1]: 0.1; Binding of serum SARS-green to looped/cyclic peptides of protein X5 of SARS-CoV Urbani [1]: 0.4; Binding of serum SARS-yellow to linear peptides of protein X5 of SARS-CoV Urbani [1]: 0.8; Binding of serum SARS-yellow to looped/cyclic peptides of protein X5 of SARS-CoV Urbani [1]: 0.3; Rabbit serum linear peptides [2]: 0.5; Rabbit serum looped peptides [2]: 0.6 |
| NLLLLFVTIYSHLLL | 0.7 | 0.5 | 0.5 | 0.4 | 0.5 | 0.4 | 0.4 | 0.2 | 0.5 | 0.4 | 0.4 | 0.2 | 0.1 | 0.3 | 0.2 | 0.6 | 0.5 | 0.4 | 0.5 | 0.6 | Binding of serum 62 to looped/cyclic peptide (PEPSCAN-ELISA) [1]: 0.5; Binding of serum London to looped/cyclic peptide (PEPSCAN-ELISA) [1]: 0.2; Binding of serum SARS-green to looped/cyclic peptide (PEPSCAN-ELISA) [1]: 0.2; Binding of serum SARS-yellow to looped/cyclic peptide (PEPSCAN-ELISA) [1]: 0.4 |
| PNVQIHTIDGSSGVA | 0.6 | – | 0.4 | – | 0.5 | – | 0.4 | – | 0.7 | – | 0.6 | 0.3 | 0.2 | 0.4 | 0.1 | 0.4 | 0.5 | 0.5 | 0.6 | 0.5 | Binding of serum 1a to looped/cyclic peptides of protein X1 of SARS-CoV Urbani [1]: 0.4; Binding of serum 1b to looped/cyclic peptides of protein X1 of SARS-CoV Urbani [1]: 0.3; Binding of serum 2 to looped/cyclic peptides of protein X1 of SARS-CoV Urbani [1]: 0.2; Binding of serum 6 to looped/cyclic peptides of protein X1 of SARS-CoV Urbani [1]: 0.2; Binding of serum 37 to looped/cyclic peptides of protein X1 of SARS-CoV Urbani [1]: 0.3; Binding of serum 62 to looped/cyclic peptides of protein X1 of SARS-CoV Urbani [1]: 0.3; Binding of serum London to looped/cyclic peptides of protein X1 of SARS-CoV Urbani [1]: 0.2; Binding of serum SARS-green to looped/cyclic peptides of protein X1 of SARS-CoV Urbani [1]: 0.2; Binding of serum SARS-yellow to looped/cyclic peptides of protein X1 of SARS-CoV Urbani [1]: 0.2 |
| RPLMESELVIGAVII | – | – | – | – | – | – | – | – | – | – | – | – | – | – | – | – | – | – | – | – | Binding of serum 1a to linear peptides of protein M of SARS-CoV Urbani [1]: 0.8; Binding of serum 1b to linear peptides of protein M of SARS-CoV Urbani [1]: 0.6; Binding of serum 2 to linear peptides of protein M of SARS-CoV Urbani [1]: 0.7; Binding of serum 6 to linear peptides of protein M of SARS-CoV Urbani [1]: 0.3; Binding of serum 37 to linear peptides of protein M of SARS-CoV Urbani [1]: 0.6; Binding of serum 62 to linear peptides of protein M of SARS-CoV Urbani [1]: 0.9; Binding of serum London to linear peptides of protein M of SARS-CoV Urbani [1]: 0.4; Binding of serum SARS-green to linear peptides of protein M of SARS-CoV Urbani [1]: 0.3; Binding of serum SARS-yellow to linear peptides of protein M of SARS-CoV Urbani [1]: 0.1; Recognition of the peptide by sera of SARS-CoV infected individuals, and form (linear, looped/cyclic) in which it is recognized [1]: recognized in looped/cyclic form; Rabbit serum linear peptides [2]: 0.4; Rabbit serum looped peptides [2]: 0.2; Binding of Control Serum Blood-Bank to Looped peptides of the protein M of SARS-CoV Urbani [3]: 0.8; Binding of Control serum Blood-bank to linear peptides of the protein M of SARS-CoV Urbani [3]: 0.6; Binding of Control serum LUMC to linear peptides of the protein M of SARS-CoV Urbani [3]: 0.5; Binding of Control serum LUMC to looped peptides of the protein M of SARS-CoV Urbani [3]: 0.8 |
